According to publication PMC8513920 (Chemical Science, 2021):
≈ marks a conversion by molar mass, not a printed value.

Experiment: High-throughput Equilibrium Solubility measurement
Assay type: physicochemical
Details: phosphate buffer, pH 6.8

Compound: N#Cc1c[nH]c2c(C(=O)N3CCN(CCc4ccc(F)cc4)CC3)cccc12 [compound 3, pruvanserin]
- solubility: 17 µM (≈ 6.4 µg/mL)
